# Experimental data: ChEMBL document CHEMBL1201862, “PubChem BioAssay data set” (2004)
# Activity calls are given as the source filed them.
# What was measured:
# [1] = target: T1, Tyrosine-protein phosphatase non-receptor type 7 (Homo sapiens, UniProt P35236); assay: HePTP (PTPN7) phosphatase inhibitor potency, SAR follow-up, biochemical, set 2 (AID 449736); format: functional
# T1 sequence (P35236 whole entry): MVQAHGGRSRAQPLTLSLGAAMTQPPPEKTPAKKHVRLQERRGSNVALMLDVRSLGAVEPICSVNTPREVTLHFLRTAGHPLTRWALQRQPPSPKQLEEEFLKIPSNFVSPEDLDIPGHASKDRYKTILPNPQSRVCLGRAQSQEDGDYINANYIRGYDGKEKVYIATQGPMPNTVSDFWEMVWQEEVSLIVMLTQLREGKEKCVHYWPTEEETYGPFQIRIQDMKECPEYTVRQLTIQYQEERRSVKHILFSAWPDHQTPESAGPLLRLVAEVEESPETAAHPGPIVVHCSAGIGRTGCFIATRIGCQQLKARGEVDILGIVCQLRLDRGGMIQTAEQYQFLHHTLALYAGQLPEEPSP
# Cytochrome P450 2D6 = Cytochrome P450 2D6 (Homo sapiens, UniProt P10635);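 also: CYP2D6 member of a cytochrome P450 panel assay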
# Sequence of Cytochrome P450 2D6 (P10635 whole entry): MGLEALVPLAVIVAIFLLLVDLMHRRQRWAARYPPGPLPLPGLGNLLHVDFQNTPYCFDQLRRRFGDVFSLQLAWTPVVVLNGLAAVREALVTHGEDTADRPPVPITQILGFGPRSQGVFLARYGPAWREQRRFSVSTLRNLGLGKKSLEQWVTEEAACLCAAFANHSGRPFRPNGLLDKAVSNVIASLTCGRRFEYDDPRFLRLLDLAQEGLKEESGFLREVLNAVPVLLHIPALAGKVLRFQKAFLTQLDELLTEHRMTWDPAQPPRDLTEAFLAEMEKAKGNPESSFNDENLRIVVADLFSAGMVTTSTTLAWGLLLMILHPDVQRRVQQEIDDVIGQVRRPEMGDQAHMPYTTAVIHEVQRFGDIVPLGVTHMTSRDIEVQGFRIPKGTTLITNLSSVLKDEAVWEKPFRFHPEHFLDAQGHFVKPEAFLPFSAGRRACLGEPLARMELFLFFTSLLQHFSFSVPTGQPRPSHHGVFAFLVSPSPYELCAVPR
# Cytochrome P450 2C19 = Cytochrome P450 2C19 (Homo sapiens, UniProt P33261); assay: Cytochrome panel assay with activity outcomes. Panel member name: p450-cyp2c19 Compounds with AC50 equal or less than 10 uM are considered active; format: functional; conditions: read-out: AC50
# Sequence of Cytochrome P450 2C19 (P33261 whole entry): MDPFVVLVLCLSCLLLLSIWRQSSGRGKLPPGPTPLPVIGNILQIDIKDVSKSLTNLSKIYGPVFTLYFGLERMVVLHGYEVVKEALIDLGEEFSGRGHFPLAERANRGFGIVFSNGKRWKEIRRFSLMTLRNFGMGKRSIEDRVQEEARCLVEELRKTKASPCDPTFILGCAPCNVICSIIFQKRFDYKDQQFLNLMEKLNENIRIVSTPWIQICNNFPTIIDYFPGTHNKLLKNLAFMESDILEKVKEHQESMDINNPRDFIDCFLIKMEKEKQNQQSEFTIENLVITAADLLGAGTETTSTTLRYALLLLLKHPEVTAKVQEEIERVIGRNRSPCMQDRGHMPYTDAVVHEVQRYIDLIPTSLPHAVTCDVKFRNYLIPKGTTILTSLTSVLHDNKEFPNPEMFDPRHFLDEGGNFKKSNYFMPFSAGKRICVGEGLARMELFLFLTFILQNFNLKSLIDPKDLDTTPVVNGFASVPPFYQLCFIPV
# [2] = target: T2, Short transient receptor potential channel 4 (Mus musculus, UniProt Q9QUQ5); assay: TRPC4 positive allosteric modulators, dose response, cell-based, HEK293 TRPC4/mu-opioid, Fluo-4 calcium, EC20 DAMGO (AID 434941); format: functional
# T2 sequence (Q9QUQ5 whole entry): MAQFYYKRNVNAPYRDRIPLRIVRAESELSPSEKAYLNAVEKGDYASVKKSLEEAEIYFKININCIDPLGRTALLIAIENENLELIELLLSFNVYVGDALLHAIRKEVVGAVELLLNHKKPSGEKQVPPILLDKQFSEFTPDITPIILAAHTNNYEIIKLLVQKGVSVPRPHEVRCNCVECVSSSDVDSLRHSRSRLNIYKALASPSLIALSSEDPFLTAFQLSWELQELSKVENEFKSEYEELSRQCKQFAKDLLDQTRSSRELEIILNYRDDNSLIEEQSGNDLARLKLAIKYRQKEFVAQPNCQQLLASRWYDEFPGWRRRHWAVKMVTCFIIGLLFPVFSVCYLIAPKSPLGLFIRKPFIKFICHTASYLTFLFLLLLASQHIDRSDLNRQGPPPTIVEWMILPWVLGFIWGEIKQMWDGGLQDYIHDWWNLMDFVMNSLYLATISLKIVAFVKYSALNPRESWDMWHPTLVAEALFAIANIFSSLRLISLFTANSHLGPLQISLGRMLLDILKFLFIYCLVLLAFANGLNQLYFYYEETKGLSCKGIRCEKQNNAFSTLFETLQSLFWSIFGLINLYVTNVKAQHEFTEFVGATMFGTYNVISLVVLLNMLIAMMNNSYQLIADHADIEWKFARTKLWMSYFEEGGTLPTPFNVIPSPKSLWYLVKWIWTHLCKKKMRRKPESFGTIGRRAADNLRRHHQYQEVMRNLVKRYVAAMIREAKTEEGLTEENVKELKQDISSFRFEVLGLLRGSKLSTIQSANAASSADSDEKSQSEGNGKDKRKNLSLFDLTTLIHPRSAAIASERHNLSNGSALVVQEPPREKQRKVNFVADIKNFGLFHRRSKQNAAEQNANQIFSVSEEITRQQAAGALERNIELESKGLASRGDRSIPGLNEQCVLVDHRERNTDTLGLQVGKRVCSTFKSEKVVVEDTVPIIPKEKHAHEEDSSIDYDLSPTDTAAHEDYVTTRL
# [3] = target: T2, Short transient receptor potential channel 4; assay: mouse TRPC4 channel activators, dose response, cell-based, HEK293 TRPC4/mu-opioid, Fluo-4 calcium (AID 434937); format: functional
# INS1 = assay: beta cell apoptosis inhibitors, cytokine rescue, dose response, luminescence, retest (AID 449756); format: functional, cell-based; conditions: Rattus norvegicus;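 also: cell death triggered by IL-1 beta plus TNF-alpha plus IFN-gamma mixture; protective hits raise ATP signal compared with cytokine alone wells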
# [4] = target: G-protein coupled receptor 55 (Homo sapiens, UniProt Q9Y2T6); assay: GPR55 agonists via beta-arrestin recruitment, primary screen, imaging, U2OS cells, beta-arrestin-GFP redistribution (AID 1961); format: functional
# Sequence of G-protein coupled receptor 55 (Q9Y2T6 whole entry): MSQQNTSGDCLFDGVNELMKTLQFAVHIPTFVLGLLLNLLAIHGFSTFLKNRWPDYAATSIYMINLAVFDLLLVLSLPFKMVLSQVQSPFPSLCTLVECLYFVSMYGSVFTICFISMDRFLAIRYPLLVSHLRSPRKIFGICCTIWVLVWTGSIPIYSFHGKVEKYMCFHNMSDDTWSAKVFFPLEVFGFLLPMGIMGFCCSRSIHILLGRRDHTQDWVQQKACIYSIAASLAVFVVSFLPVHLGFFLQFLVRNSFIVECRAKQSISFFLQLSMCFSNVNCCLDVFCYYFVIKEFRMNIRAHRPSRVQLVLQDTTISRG
# [5] = target: Neurotensin receptor type 1 (Homo sapiens, UniProt P30989); format: functional;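 also: Image-based confirmatory dose-response assay measuring agonist activity at NTR1; NTR1-expressing U2OS osteosarcoma cells imaged for beta-arrestin GFP spot formation; agonist potency where compounds increase beta-arrestin recruitment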
# Sequence of Neurotensin receptor type 1 (P30989 whole entry): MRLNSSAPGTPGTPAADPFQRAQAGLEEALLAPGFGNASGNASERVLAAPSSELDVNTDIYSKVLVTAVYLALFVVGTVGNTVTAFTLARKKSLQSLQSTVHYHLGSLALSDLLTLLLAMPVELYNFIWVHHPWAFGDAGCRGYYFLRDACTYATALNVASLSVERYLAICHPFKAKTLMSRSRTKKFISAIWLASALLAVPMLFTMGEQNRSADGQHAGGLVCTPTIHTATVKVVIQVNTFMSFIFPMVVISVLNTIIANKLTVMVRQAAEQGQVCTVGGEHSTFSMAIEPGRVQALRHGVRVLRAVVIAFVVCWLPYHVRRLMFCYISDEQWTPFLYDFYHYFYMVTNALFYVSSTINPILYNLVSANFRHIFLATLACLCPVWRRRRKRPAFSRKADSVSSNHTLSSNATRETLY
# Insulin-degrading enzyme [6] = target: T3, Insulin-degrading enzyme (Homo sapiens, UniProt P14735); assay: activators of recombinant IDE enzyme, dose response, counter-screen for IDE activator project, biochemical, fluorescence polarization (AID 588681)
# T3 sequence (P14735 whole entry): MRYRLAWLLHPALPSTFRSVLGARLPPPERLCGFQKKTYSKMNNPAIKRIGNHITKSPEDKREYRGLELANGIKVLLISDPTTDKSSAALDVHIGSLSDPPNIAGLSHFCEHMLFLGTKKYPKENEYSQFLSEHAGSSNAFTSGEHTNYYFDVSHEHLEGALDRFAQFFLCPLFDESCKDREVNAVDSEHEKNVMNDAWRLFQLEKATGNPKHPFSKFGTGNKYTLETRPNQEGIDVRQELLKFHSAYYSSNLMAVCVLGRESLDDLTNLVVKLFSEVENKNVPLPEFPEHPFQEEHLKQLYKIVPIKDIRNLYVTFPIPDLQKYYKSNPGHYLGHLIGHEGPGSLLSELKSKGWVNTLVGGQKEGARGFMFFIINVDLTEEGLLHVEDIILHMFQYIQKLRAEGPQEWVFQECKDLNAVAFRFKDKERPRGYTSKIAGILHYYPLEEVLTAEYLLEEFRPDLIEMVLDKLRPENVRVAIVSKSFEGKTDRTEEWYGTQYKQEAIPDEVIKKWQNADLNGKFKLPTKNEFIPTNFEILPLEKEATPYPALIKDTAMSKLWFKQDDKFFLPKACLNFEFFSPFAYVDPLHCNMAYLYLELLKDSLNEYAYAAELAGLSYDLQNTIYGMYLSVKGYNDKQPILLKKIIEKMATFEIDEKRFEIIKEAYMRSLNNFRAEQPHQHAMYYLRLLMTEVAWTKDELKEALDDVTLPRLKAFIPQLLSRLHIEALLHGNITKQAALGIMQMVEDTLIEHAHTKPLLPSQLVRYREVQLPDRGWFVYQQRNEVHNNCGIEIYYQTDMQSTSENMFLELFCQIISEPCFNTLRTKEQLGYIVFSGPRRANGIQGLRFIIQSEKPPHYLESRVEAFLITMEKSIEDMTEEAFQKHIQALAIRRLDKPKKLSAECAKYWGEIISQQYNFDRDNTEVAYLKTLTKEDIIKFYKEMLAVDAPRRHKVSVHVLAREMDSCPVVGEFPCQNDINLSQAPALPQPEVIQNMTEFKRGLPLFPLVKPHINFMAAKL
# [7] = CEM21 lymphoblast cell cytotoxicity, dose response, cytotoxicity control for viral fusion inhibitor project, CellTiter-Glo luminescence, cherry-picked (AID 652042); format: functional, cell-based;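 also: potency for signal decrease meaning cytotoxicity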
# [8] = off-target signal loss in HeLa-CEM21 co-culture – HeLa F-luc CTL cells, cherry-picked, counter-screen for HIV-1 Env fusion inhibitor project, dose response (AID 652040); format: functional, cell-based;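 also: potency for signal decrease marking cytotoxic or nonspecific inhibition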
# [9] = inhibitors of intracellular T. cruzi replication, confirmation, NIH3T3 host cells, beta-gal luminescence (AID 2044); format: functional, cell-based;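 also: intracellular parasites grown in NIH/3T3 mouse fibroblasts as host cells; luminescent beta-galactosidase reporter signal from transgenic T. cruzi replicating inside host cells; inhibitors lower the luminescence signal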
# HEK293 [10] = assay: HEK cell cytotoxicity by LDH release, dose response, cytotoxicity control for IDE activator project, fluorescence, HEK cells (AID 588440); format: functional, cell-based; conditions: Homo sapiens;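 also: cytotoxicity by LDH release measuring loss of membrane integrity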
# [11] = inhibitors of HIV Env-driven cell fusion, dose response, cherry-pick (AID 652057); format: functional, cell-based
# [12] = cytotoxicity toward NIH3T3 fibroblasts, dose response, counter-screen, cell-based, ATP luminescence, mouse fibroblasts (AID 2010); format: functional;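 also: cells exposed to compound for about 90 hours before reading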
# [13] = ZM109 Env clade C HIV-1 fusion inhibitors, dose response, HeLa effector, CEM target cells, luciferase, cherry-pick (AID 652058); format: functional, cell-based
# [14] = inhibitors of clade B AD8 Env fusion, dose response, cell-based, cherry-pick (AID 652062); format: functional;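 also: luciferase signal from cell-cell fusion driven by HIV-1 clade B AD8 Env; potency is for inhibitors of fusion seen as a drop in luminescence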
# HEK293 [15] = assay: optical interference in Abeta FP readout, dose response, artefact control for IDE activator project, biochemical, fluorescence polarization (AID 588442); format: functional, cell-based; conditions: Homo sapiens
# Insulin-degrading enzyme [16] = target: T3, Insulin-degrading enzyme; assay: activators of endogenous IDE in HEK cells, dose response, cell-based, fluorescence polarization (AID 588439); format: functional
# Perilipin-1/ABHD5 = Perilipin-1/ABHD5 (Homo sapiens, UniProt O60240+Q8WTS1); assay: Luminescence-based biochemical high throughput dose response assay for inhibitors of the interaction of the lipase co-activator protein, abhydrolase domain containing 5 (ABHD5) with perilipin-1 (PLIN1) (2K validation set). [Related pubchem assays (depositor defined):AID493027, AID493057]
# Sequence of Perilipin-1/ABHD5 (Q8WTS1 whole entry, the tested form may be a part): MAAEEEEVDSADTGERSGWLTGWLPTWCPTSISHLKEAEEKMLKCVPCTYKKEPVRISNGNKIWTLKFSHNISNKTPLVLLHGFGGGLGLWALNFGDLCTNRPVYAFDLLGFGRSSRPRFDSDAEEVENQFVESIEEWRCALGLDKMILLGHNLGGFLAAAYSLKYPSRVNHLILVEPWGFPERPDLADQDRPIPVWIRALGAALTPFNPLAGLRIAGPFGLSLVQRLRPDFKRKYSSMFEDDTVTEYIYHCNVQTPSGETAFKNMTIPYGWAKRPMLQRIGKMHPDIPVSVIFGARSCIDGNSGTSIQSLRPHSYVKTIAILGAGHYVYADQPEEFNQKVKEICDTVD
# Sequence of Perilipin-1/ABHD5 (O60240 whole entry, the tested form may be a part): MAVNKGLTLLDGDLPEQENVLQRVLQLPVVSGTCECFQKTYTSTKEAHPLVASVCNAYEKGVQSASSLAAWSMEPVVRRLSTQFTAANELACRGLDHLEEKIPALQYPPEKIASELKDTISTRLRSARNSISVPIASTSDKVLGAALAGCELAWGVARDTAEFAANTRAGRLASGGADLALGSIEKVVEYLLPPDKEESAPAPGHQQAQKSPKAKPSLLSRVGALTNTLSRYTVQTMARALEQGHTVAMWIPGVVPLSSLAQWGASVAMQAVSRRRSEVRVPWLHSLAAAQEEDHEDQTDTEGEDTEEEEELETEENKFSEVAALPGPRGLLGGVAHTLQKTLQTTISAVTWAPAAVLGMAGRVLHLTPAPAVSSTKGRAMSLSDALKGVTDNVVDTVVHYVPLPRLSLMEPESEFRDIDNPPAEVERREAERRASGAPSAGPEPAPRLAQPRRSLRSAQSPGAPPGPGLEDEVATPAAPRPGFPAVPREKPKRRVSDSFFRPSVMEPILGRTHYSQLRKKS
# [17] = target: 1-acylglycerol-3-phosphate O-acyltransferase ABHD5/Perilipin-5 (Homo sapiens, UniProt Q00G26+Q8WTS1); assay: Luminescence-based biochemical high throughput dose response assay for inhibitors of the interaction of the lipase co-activator protein, abhydrolase domain containing 5 (ABHD5) with perilipin-5 (MLDP; PLIN5) (2K validation set). [Related pubchem assays (depositor defined):AID493035, AID493241]
# Sequence of 1-acylglycerol-3-phosphate O-acyltransferase ABHD5/Perilipin-5 (Q00G26 whole entry, the tested form may be a part): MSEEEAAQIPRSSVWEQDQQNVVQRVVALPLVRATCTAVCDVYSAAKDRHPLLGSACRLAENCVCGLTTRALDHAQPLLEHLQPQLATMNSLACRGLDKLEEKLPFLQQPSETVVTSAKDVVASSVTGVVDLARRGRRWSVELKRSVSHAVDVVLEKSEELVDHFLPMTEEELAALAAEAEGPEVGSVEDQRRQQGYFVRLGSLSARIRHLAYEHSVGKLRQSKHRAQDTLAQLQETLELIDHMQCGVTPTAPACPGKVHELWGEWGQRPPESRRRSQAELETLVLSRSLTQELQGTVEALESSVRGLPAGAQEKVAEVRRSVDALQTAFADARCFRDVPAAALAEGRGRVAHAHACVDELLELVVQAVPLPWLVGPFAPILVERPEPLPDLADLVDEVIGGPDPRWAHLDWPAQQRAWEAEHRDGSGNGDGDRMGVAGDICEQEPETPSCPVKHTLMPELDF
# Sequence of 1-acylglycerol-3-phosphate O-acyltransferase ABHD5/Perilipin-5 (Q8WTS1 whole entry, the tested form may be a part): as the sequence (Q8WTS1 whole entry, the tested form may be a part) above
# Coagulation factor XII = target: T4, Coagulation factor XII (Homo sapiens, UniProt P00748); assay: FXIIa inhibitor potency, concentration-response, biochemical (AID 716); format: functional
# T4 sequence (P00748 whole entry): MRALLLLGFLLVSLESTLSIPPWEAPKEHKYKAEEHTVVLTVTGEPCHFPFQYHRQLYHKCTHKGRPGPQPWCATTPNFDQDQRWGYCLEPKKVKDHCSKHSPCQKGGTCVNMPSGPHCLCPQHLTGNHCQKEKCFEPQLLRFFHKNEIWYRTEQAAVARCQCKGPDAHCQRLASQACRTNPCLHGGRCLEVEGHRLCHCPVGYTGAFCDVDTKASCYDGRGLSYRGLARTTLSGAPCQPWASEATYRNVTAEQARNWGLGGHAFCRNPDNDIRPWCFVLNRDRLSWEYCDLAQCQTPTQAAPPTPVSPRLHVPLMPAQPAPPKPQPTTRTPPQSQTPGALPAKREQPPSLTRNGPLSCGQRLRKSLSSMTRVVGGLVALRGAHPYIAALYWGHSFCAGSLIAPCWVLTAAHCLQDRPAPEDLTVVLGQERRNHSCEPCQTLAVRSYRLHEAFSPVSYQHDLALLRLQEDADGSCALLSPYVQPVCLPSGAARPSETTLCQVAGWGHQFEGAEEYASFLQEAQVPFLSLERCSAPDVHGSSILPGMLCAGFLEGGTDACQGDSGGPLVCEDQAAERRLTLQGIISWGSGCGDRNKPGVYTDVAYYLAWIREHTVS
compound,measurement,setting,value
Cc1ccc(NC(=O)c2sc(=S)n(-c3cc(C)ccc3F)c2N)cc1,IC50,[1],87.1 µM (active)
Cc1cc(OCCNCCO)cc(C)c1Cl,AC50,Cytochrome P450 2D6,25.1 µM (inconclusive)
same,AC50,Cytochrome P450 2C19,7.08 µM (inconclusive)
same,EC50,[2],0.09 µM (active)
same,EC50,[3],0.841 µM (active)
CC1CCC(C(C)C)C(OC(=O)Cn2c(COc3ccccc3)[n+](C)c3ccccc32)C1 (stereo not drawn),AC50,INS1,6.26 µM (active)
same,EC50,[4],> 32 µM (inactive)
same,EC50,[5],14 µM (active)
same,EC50,Insulin-degrading enzyme [6],> 54.7 µM (inactive)
same,AC50,[7],6.94 µM (active)
same,AC50,[8],6.69 µM (active)
same,EC50,[9],0.588 µM (active)
same,IC50,HEK293 [10],17.4 µM (inactive)
same,AC50,[11],3.26 µM (active)
same,EC50,[12],> 60 µM (not active)
same,AC50,[13],6.35 µM (active)
same,AC50,[14],8.6 µM (active)
same,EC50,HEK293 [15],> 54.7 µM (inactive)
same,EC50,Insulin-degrading enzyme [16],> 54.7 µM (inactive)
O=C1ON=C(c2ccc(Cl)cc2)/C1=C/c1ccc(O)cc1,EC50,[5],8.29 µM (active)
same,IC50,Perilipin-1/ABHD5,2.28 µM (active)
same,IC50,[17],3.1 µM (active)
COc1ccc(NC(=O)CSc2nnc(CNC(=O)COc3ccc(Cl)cc3)o2)c(OC)c1,IC50,Coagulation factor XII,> 50 µM (inactive)
